Activity calls are given as the source filed them. No cut-off for these calls is given here.

Data set [1] is described as follows: Plasma concentration in Balb/c mouse at 10 mg/kg, po after 2 hrs by LC-MS analysis. Type of data set: ADME, organism-based.
A short description of data set [2]: Plasma concentration in Balb/c mouse at 5 mg/kg, iv after 7 hrs by LC-MS analysis. It is filed as ADME, organism-based.
The nature of data set [3]: Plasma concentration in Balb/c mouse at 5 mg/kg, iv after 0.5 hrs by LC-MS analysis. Type of data set: ADME, organism-based.
A short description of data set [4]: Half life in ip dosed Balb/c mouse by LC-MS analysis. It is filed as ADME, organism-based. Conditions: in vivo.
Data set [5] can be described thus: Plasma concentration in Balb/c mouse at 10 mg/kg, po after 0.5 hrs by LC-MS analysis. Type of data set: ADME, organism-based.
The nature of data set [6]: AUClast in Balb/c mouse at 5 mg/kg, iv by LC-MS analysis. Also on record: dose 5 mg/kg, time 0 - last, route intravenous. Conditions: in vivo. Type of data set: ADME, organism-based.
Data set [7] can be described thus: Plasma concentration in Balb/c mouse at 10 mg/kg, po after 4 hrs by LC-MS analysis. It is filed as ADME, organism-based.
A short description of data set [8]: Plasma concentration in Balb/c mouse at 10 mg/kg, po after 7 hrs by LC-MS analysis. It is filed as ADME, organism-based.
Data set [9] is described as follows: Plasma concentration in Balb/c mouse at 5 mg/kg, iv after 4 hrs by LC-MS analysis. Type of data set: ADME, organism-based.
Data set [10] is described as follows: Plasma concentration in Balb/c mouse at 5 mg/kg, iv after 2 hrs by LC-MS analysis. It is filed as ADME, organism-based.
The nature of data set [11]: AUClast in Balb/c mouse at 10 mg/kg, po by LC-MS analysis. Type of data set: ADME, organism-based. The arrangement: dose 10 mg/kg, route oral, time 0 - last. The settings on record: in vivo.
In data set [12] the test system is SK-MEL19. The data set is described as follows: Increase in FAS protein expression in human SK-MEL-19 cells after 24 hrs. Type of data set: functional, cell-based.
Data set [13] deals with A-375. The data set is described as follows: Induction of apoptosis in human A375 cells with USP5 knock down assessed as increase in FAS protein expression. Type of data set: functional, cell-based.
Data set [14] concerns A-375. The experiment in a line: Induction of apoptosis in human A375 cells with USP5 knock down by annexin V staining based flow cytometry. Type of data set: functional. Background: In flow cytometry, cells or beads pass a laser one at a time.
For data set [15], the system named is SK-MEL19. The data set is described as follows: Reduction in DRS levels in human SK-MEL-19 cells. It is filed as functional, cell-based.
For data set [16], the system named is SK-MEL19. The data set is described as follows: Increase in FASBax protein expression in human SK-MEL-19 cells after 24 hrs. Type of data set: functional, cell-based.
For data set [17], the system named is A-375. The data set is described as follows: Induction of apoptosis in human A375 cells with USP5 and p53 knock down assessed as increase in p53 protein expression. It is filed as functional, cell-based.
The test system of data set [18] is A-375. The experiment in a line: Induction of apoptosis in human A375 cells with USP5 knock down assessed as increase in Bax protein expression. It is filed as functional, cell-based.
Data set [19] concerns A-375. The data set is described as follows: Induction of apoptosis in human A375 cells with USP5 knock down assessed as increase in p53 protein expression. It is filed as functional, cell-based.
The test system of data set [20] is A-375. The data set is described as follows: Induction of apoptosis in human A375 cells with USP5 knock down assessed as increase in PARP cleavage. Type of data set: functional, cell-based.
Data set [21] relates to A-375. The data set is described as follows: Induction of apoptosis in human A375 cells with USP5 and p53 knock down assessed as increase in Bax protein expression. It is filed as functional, cell-based.
Data set [22] has as its system SK-MEL19. The experiment in a line: Induction of apoptosis in human SK-MEL-19 cells assessed as increase in caspase 8 cleavage after 48 to 72 hrs. It is filed as functional, cell-based.
Data set [23] relates to SK-MEL19. The experiment in a line: Induction of apoptosis in human SK-MEL-19 cells assessed as increase in PARP cleavage after 48 to 72 hrs. It is filed as functional, cell-based.
For data set [24], the system named is A-375. The experiment in a line: Ratio of IC50 for human A375 cells with USP5 knock down to IC50 for human A375 cells. Type of data set: functional.
Data set [25] has as its system A-375. The data set is described as follows: Induction of apoptosis in human A375 cells with USP5 and p53 knock down assessed as increase in PARP cleavage. Type of data set: functional, cell-based.
Data set [26] deals with A-375. The data set is described as follows: Induction of FAS protein expression in Vemurafenib resistant human A375 cells. It is filed as functional, cell-based.
Data set [27] has as its system A-375. The data set is described as follows: Induction of apoptosis in human A375 cells with USP5 and p53 knock down assessed as increase in FAS protein expression. It is filed as functional, cell-based.
The test system of data set [28] is SK-MEL19. The experiment in a line: Induction of apoptosis in human SK-MEL-19 cells assessed as increase in Bid protein level after 48 to 72 hrs. It is filed as functional, cell-based.
The test system of data set [29] is A-375. The experiment in a line: Induction of apoptosis in human A375 cells with USP5 and p53 knock down assessed as increase in Bid protein expression. It is filed as functional, cell-based.
Data set [30] relates to A-375. The data set is described as follows: Induction of apoptosis in human A375 cells with USP5 knock down assessed as increase in Bid protein expression. It is filed as functional, cell-based.
Data set [31] concerns SK-MEL19. The experiment in a line: Increase in protein ubiquitination in human SK-MEL-19 cells after 24 hrs. It is filed as functional, cell-based.

As for `CCCC(NC(=O)/C(C#N)=C/c1ccc2cccnc2n1)c1ccccc1` (stereo unspecified), the values for the concentration at 2 h in data set [1] and in [10] were 10.6 to 40.6 ng/mL and 79.6 to 99.1 ng/mL, respectively. For the same compound, the values for the concentration at 7 h in [2] and in [8] were 33.7 to 71.4 ng/mL and 11.4 to 15.9 ng/mL, respectively. Moreover, the concentration at 0.5 h in data set [3] fell in the range of 301 to 397 ng/mL; in data set [5], 50.8 to 117 ng/mL. Further, the half-life in data set [4] was in the range of 30 to 60 min. Moreover, the results for the AUC(0-t) in [6] and in data set [11] were 692 to 993 ng·h/mL and 126 to 280 ng·h/mL, respectively. Further, the values for the concentration at 4 h in [7] and in [9] were 13.3 to 30 ng/mL and 33.4 to 63.1 ng/mL, respectively.

For `CCCS(=O)(=O)Nc1ccc(F)c(C(=O)c2c[nH]c3ncc(-c4ccc(Cl)cc4)cc23)c1F` [VEMURAFENIB], the outcome with SK-MEL19 [12], in the data set with A-375 [13], in the data set with SK-MEL19 [15], in the data set on SK-MEL19 [16], in the data set on A-375 [18] and in the data set on A-375 [19] was Active. Further, the result in the data set on A-375 [20], in the data set on SK-MEL19 [22], in the data set on SK-MEL19 [23], in the data set on SK-MEL19 [28], in the data set on A-375 [30] and with SK-MEL19 [31] was Active. Also, the “fold change (FC)” value in the data set on A-375 [14] is reported as above 3. Also, the result in the data set on A-375 [17], in the data set on A-375 [21], with A-375 [25], in the data set with A-375 [26], with A-375 [27] and in the data set with A-375 [29] was inactive. Besides, the “Ratio IC50” value in the data set on A-375 [24] worked out at 2.

For orientation: half-life means the time in which the quantity being followed falls by half. Usually AUC(0-t) stands for exposure summed from dosing to a finite time, without extrapolation to infinity. Higher therefore signals more exposure.

The values are drawn from ChEMBL document CHEMBL4257227, “Deubiquitinase inhibitors and methods for use of the same” (2016).
